Source: a melting point compilation (Tetko et al.; mined from patent text by program, amines drawn as free bases though some values may be those of a salt)

SMILES	melting point [°C]
O=C1NCc2c3c(c4[nH]c5ccccc5c4c21)Cc1ccc(C=Cc2ccccn2)cc1-3	> 320
Oc1ccc(CCNC[C@H](O)COc2ccccc2)cc1	118 to 119
c1ccc(N2CCN(CCCc3[nH]nc4c3CCCC4)CC2)cc1	92 to 94
C=Cc1ccc2c(c1)c(=O)c(C(=O)NCc1ccc(Cl)cc1)cn2C	193 to 196
O=c1c2c(cc3n1CCCS3)CCCC2	123 to 124
c1ccc2c(c1)ncc1nc(-c3nnn[nH]3)cn12	320 to 322
COc1ccc(Cl)cc1-c1[nH]c2cccc3c2c1CCNC3=O	160 to 162
Cn1c(C(F)(F)F)nn(-c2ccccc2[N+](=O)[O-])c1=O	83
C#Cc1ccc(C#C)cc1	91 to 92
CS(=O)(=O)N1Cc2sccc2C(O)C1 (stereo not drawn)	140
O=C(c1cc(-c2cccc(Cl)c2)c(=O)n2c1-c1c(Cl)cccc1C2)N1CCC[C@@H]1CO	228 to 230
CN1CC=C(c2c[nH]c3ccc(C4CN=CS4)cc23)CC1 (stereo not drawn)	260 to 263
O=C(C1CCC1)N1CCSCC1	39 to 40
Cc1ccc(F)cc1C(=O)N1Cc2cccnc2Nc2ccccc21	138 to 140
CN(C)CCCOc1ccc(-c2nnc(CSCCOc3ccccc3)o2)cn1	69 to 70
N=C(Nc1ccc(CCNCc2cccc(F)c2)cc1)c1cccs1	130 to 131
FC(F)(F)c1ccc(Oc2cc(Cl)nc(Cl)c2)c(Cl)c1	66
O=P(Cc1ccc(O)cc1)(c1ccccc1)c1ccccc1	125
O=C1c2ccccc2CCc2ccc(Cl)cc21	64 to 65
CCOC(C)OCC(C)C1CCC2C3CC=C4CC(O)CC(O)C4(C)C3CCC12C (stereo not drawn)	124 to 126
COc1cc(CCCC(O)C(=O)OC(C)C)ccc1OCc1nc(-c2ccco2)oc1C (stereo not drawn)	75 to 76
CC1(C)Oc2ccc(C#N)cc2C(Oc2ccnc(O)c2)C1O (stereo not drawn)	249 to 250

SMILES	melting point [°C]
COc1ccc(C)cc1NC(=O)Nc1ccc(C2=CCN(C(=O)Nc3ncccc3CO)CC2)cc1	103 to 108
CCCCCCC/C=C/C(=O)NC	60 to 63
CC1=C(C(=O)OCCN(C)c2ccccc2)C(c2ccccc2C(F)(F)F)c2c(ccnc2OC(C)C)N1 (stereo not drawn)	114 to 116
CN1CCN(Cc2ccc(NC(=O)N3CCCc4cc(Oc5ccnc(N)n5)ccc43)cc2C(F)(F)F)CC1	120 to 123
O=C(O)CCCCCC[C@H]1CC[C@@H](O)CC1	75 to 79
O=C=NC(=O)SCc1ccccc1	140 to 145
C=CCN1C(=O)c2cccc3c(OCCO)ccc(c23)C1=O	144 to 145
COc1cc(C(=O)c2cn(C)c(-c3cn(C)c4ccccc34)n2)cc(OC)c1OC	164 to 166
CN1CCCC(Nc2nc3ccccc3[nH]2)CC1 (stereo not drawn)	168
NC(=O)C1(CCCNC=O)c2ccccc2-c2ccccc21	160 to 161
COC(=O)C1C(=O)CCN(N2CCCCC2)C1=O (stereo not drawn)	157 to 159
Cc1ccc(C(=O)NC(NC(=S)Nc2ccccc2C)C(F)(F)F)cc1 (stereo not drawn)	210 to 211
CCCSc1ncc(CO)n1Cc1ccccc1Cl	98 to 101
CCCCc1nc2cnc3cccnc3c2n1CCNC(=O)OC(C)(C)C	198 to 199
O=C1c2c(Cl)ccc(Cl)c2C(=O)N1CCN1CCC(c2noc3cc(F)ccc23)CC1	163 to 164
CCOC(=O)c1ccc(C)nc1	57 to 58
O=C(NCCOCCO[N+](=O)[O-])c1cncs1	63 to 65
O=CN1CCN(c2nc3ccc(Cl)ccc-3n2)CC1	228 to 229
O=C(NCC1CCN(CC2(C(=O)O)CCOCC2)CC1)N1C(=O)C2(CCCC2)c2ccc(F)cc21	129
N=C(N)Nc1ccc(Cl)c(Cl)c1	208
CCN1CCN(CC(=O)NC2(c3cc4ccccc4o3)C(=O)Nc3cc(Cl)cc(Cl)c32)CC1 (single isomer, unassigned; (+))	192 to 196
CCC(=O)C(=O)Nc1c(C)c(C)c2c(c1C)C(c1ccc(C(C)C)cc1)CO2 (stereo not drawn)	97 to 98

SMILES	melting point [°C]
CCOC(=O)C(=NOC)c1nc(Cl)cc(NC=O)n1	116 to 119
CCOC(=O)C(C(=O)OCC)c1ccc(OCC2=NCCN2)cc1	72 to 110
CCc1ccc(C(=O)C2=C(O)C(=O)N(c3ccc(C)nn3)C2c2ccc(OC(F)(F)F)cc2)cc1 (stereo not drawn)	263 to 267
O=[N+]([O-])c1ccc(O)c(CO)c1	112 to 114
COC(=O)c1ccc(Cc2cc3cc(Cl)ccc3n2S(=O)(=O)c2ccc(C(C)C)cc2)cc1F	127
COc1ccccc1-c1ccccc1C1=NC(C)(C)CO1	129 to 131
O=C1Nc2cc(C(F)(F)F)ccc2N2CCN(CCc3ccccn3)CC12 (stereo not drawn)	194 to 196
COc1cc(OC(=O)c2ccccc2)c2ccccc2c1OC(=O)c1ccccc1	63 to 64
CC(CC#N)CN1C(=O)c2ccccc2S1(=O)=O (stereo not drawn)	83 to 84
N#CNC(=O)C=NNc1ccc(F)cc1	265 to 267
Cc1[nH]c(/C=C2\C(=O)Nc3cc(NC(=O)c4cccn(-c5ccc(F)cc5)c4=O)ccc32)c(C)c1CC(=O)O	> 300
COC(=O)c1cccc([N+](=O)[O-])c1Cl	68 to 70
CCCCCCCCCCCCCCCCCCNC(=O)C(=O)Nc1ccc(Sc2ccc(O)cc2)cc1	163
NNC(=O)c1cc(Cl)c(O)cc1O	260
CCSc1cc(C)nc(SCC)c1NC(=O)CCCCCCCSc1nc2ccccc2s1	94 to 96
Cc1c(C(=O)N(CC(=O)O)c2ccc(OCC(C)(C)C)c(C#N)c2)cnn1-c1ccc(F)cc1	105 to 110
COc1cccc(OC)c1-c1ccccc1P(C1CCCCC1)C1CCCCC1	163 to 165
CCS(=O)(=O)c1ccc(C(=O)O)c(Cl)c1CBr	103
CC(C)C(C)Nc1c(NCc2ccc(C#N)cc2)c(=O)c1=O (stereo not drawn)	257 to 260
CCOC(=O)c1cn(C2CC2)c2c(C#N)c(Cl)c(F)cc2c1=O	162 to 165
CCOc1c(-c2nnn[nH]2)oc2c3ccccc3n(-c3ccccc3)c12	189 to 192
O=C1NCCN(CC(=O)N2CCOCC2)C1c1cccs1 (stereo not drawn)	190 to 193

SMILES	melting point [°C]
COC(=O)COC(=O)COc1ccc(N)cc1	76.5 to 78.5
COc1cc(-c2nn(C)c(C(F)(F)F)c2Br)c(F)cc1Cl	85 to 86
COc1ccc2c(c1)C(=O)N(c1ccc3cnn(C)c3c1)C2	175 to 177
CNC[C@@H](O)c1cnccn1	78 to 81
CC(C)(C)c1cc(C=O)c2c(c1O)CCCC2	193 to 194
FC1=COC(COCc2ccccc2)C(COCc2ccccc2)O1 (stereo not drawn)	61.5 to 63
CCCCCC(=O)NC(C)(C)C(=O)O	141 to 143
Cc1nnc(-c2ccnc(NC(=O)OC(C)(C)C)c2)o1	290 to 291
O=C(Nc1ccc(N2CCCCC2)cc1)N(C[C@H]1CC[C@H](CN(C(=O)Nc2ccc(N3CCCCC3)cc2)C2CCCCCC2)CC1)C1CCCCCC1	175 to 178
NC(=O)Cn1cc2c(n1)CN=C(c1ccccc1)c1cc(Cl)ccc1-2	236 to 238
CCOC(=O)C=Cc1ccc(C(F)(F)F)cc1	31 to 32.5
Cc1ccc2c(=O)cc(CS(C)=O)oc2c1C (stereo not drawn)	205 to 209
C[C@@H]1CNC(=O)c2cc3ccc(C(F)(F)F)cc3n21	201 to 204
COc1cc(OC)nc(C2(O)OC(=O)c3c(Cl)ccc(Cl)c32)n1 (stereo not drawn)	161 to 175
Nc1cccc2c1C1CCCCN1C2=O (stereo not drawn)	183
N#Cc1cccc2c1C(O)CC2 (stereo not drawn)	73
O=C(OCc1nc(/C=C/c2cn(-c3ccccc3)nc2O)cs1)c1ccccc1	215 to 216
COc1cc2c(cc1OC)CN(CCCOc1ccc([N+](=O)[O-])cc1)CC2	100
CCCC(=O)Nc1n[nH]c2c([N+](=O)[O-])c(Br)c([N+](=O)[O-])cc12	260
O=C1N(c2ccc(Cl)cc2)c2ncccc2C1(Cc1ccncc1)Cc1ccccn1 (stereo not drawn)	193 to 195
Cc1ccc2cc(NS(C)(=O)=O)ccc2n1	151 to 153
CNC(=O)CN1CCc2cc(Nc3ncc(Cl)c(Nc4ccccc4C(=O)NC)n3)c(OC)cc2CC1	200 to 216

SMILES	melting point [°C]
CC(=O)Oc1cc(OC(C)=O)c2ccccc2c1OC(C)=O	136 to 137
O=C(c1ccccc1)C(OCCN1CCCCC1)c1ccccc1 (stereo not drawn)	53
CC(=O)OCc1ccc2sc(S(N)(=O)=O)cc2c1	113 to 115
CC(=O)Nc1c(C(=O)c2ccccc2)[nH]c2cc(C(F)(F)F)ccc12	177 to 179
O=[N+]([O-])c1ccc2oc(CBr)cc2c1	96 to 98
Cn1c(CC(=O)NC2CN3CCC2CC3)cc2ccccc21 (stereo not drawn)	185 to 187
ClCCOc1cccc2ncccc12	75 to 78
CC(NC(=S)Nc1ccc(N2CCCCC2)nc1)C(C)(C)C (stereo not drawn)	151 to 153
CC(C)(C)OC(=O)N1CCN(c2ncccc2C=O)CC1	88 to 89
COC(=O)C1=Cc2ccccc2N(C)CCC1	80 to 82
CC(C(=O)O)c1ccc2c(c1)CCc1cccnc1O2 (stereo not drawn)	182 to 184
C#CCCCc1c2c(nn1CCC)c(N)nc1ccccc12	144 to 145
Oc1ccc(N=C(C=COc2ccccc2)Oc2ccccc2)cc1	110
COc1ccc(C)cc1NC(=O)Nc1ccc(N2CCN(C(=O)Nc3ncccc3C)CC2)cc1	209 to 211
COC(=O)c1cc(N(C)C(C)=O)cc(N(C)C(C)=O)c1	106
Cc1ccccc1CC(=O)c1cccc(I)c1	115 to 117
CNC(=O)c1cn(C)nc1[N+](=O)[O-]	163 to 165
O=C(O)c1nc(SCc2ccccc2)ccc1SCc1ccccc1	129
CCOC(=O)[C@H](CC(C)C)NC(=O)[C@@H]1CCCN1C(=O)OCc1ccccc1	60 to 64
C=CCOc1ccc(C=NO)c(O)c1	74 to 76
